Measured values taken from publication PMC12123601, “Light-Induced, Lysine-Targeting Irreversible Covalent Inhibition of the Human Oxygen Sensing Hydroxylase Factor Inhibiting HIF (FIH)” (Journal of the American Chemical Society, 2025).
Values joined by “and” are separate entries in the source; they are usually repeats but may differ in a detail not shown here. Equal values may be shown once.

Assays:
Hep3B cells = experiment: Whole-genome RNA sequencing of treated Hep3B cells; format: cell-based; conditions: replicates B1, B2
Description: To confirm whether the effects of NBA-ZG-2291 on gene expression are FIH-dependent, we knocked down FIH using siRNA and compared the impact of NBA-ZG-2291 treatment and FIH knockdown (siFIH) on gene expression in Hep3B cells. Whole-genome expression profiling analysis was conducted in NBA-ZG-2291-treated Hep3B cells and FIH knockdown Hep3B cells, with DMSO-treated Hep3B cells serving as controls.

PHD2 = molecular target: T1, PHD2 (Homo sapiens, UniProt Q9GZT9); experiment: CETSA in Hep3B cells detecting PHD2 engagement; format: cell-based; conditions: 50 μM, 12-48 h after 30 min light activation
T1 construct: endogenous in cells; host or cells: Hep3B (SCSP-5045)
Description: To investigate potential cellular target engagement of NBA-ZG-2291 with FIH, we performed a time-dependent cellular thermal shift assay (CETSA) using Hep3B cells. The results imply that, after 30 min of light activation (365 nm, 16 W), NBA-ZG-2291 effectively stabilizes FIH with a ΔT m of about 9 °C after incubation for 12–48 h (Figure A), indicating sustained engagement with FIH. […] We also performed Western blotting to examine the protein levels of both HIF-1α and HIF-2α in control and NBA-ZG-2291-treated Hep3B cells.
Figure S11. The CETSA assay detecting PHD2 engagement was carried out with Hep3B cells grown in the presence of NBA-ZG-2291 (50 µM) for 12-48 h after 30 minutes of light activation (365 nm, 16W). The intensity of the bands for grayscale analysis was referenced to the starting temperature (37 °C). α-Actinin was the sample loading control. n = 2; mean ± SD. The uncropped blot is […]
(1 picture or pasted object on this page, not shown here)
3.4 Intact protein mass spectrometry […]
The process of customizing non-standard residues (NBA-ZG-2291 modified Lys106) in the amber14sb force field involved the following steps: First, the molecular structure of NBA-ZG-2291 was obtained and its topology was generated. […] The molecular charges were then calculated using the RESP method, and the topology file was updated with these charge values. […]

T1 sequence (Q9GZT9 whole entry): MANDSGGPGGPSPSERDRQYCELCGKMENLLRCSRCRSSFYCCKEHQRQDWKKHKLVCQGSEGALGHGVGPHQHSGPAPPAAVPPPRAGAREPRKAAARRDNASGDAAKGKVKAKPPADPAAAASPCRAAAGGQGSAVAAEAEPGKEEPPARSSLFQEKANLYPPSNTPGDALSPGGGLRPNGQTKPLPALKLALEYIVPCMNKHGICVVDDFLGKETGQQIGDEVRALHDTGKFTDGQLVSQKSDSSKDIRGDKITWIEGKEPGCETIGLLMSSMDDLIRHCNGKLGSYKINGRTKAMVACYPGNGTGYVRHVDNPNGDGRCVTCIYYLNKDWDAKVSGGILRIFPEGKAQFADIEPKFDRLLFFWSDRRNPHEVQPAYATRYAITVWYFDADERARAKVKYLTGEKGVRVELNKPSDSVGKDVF

## O=C(O)CNC(=O)c1ncc(-c2cc(-c3ccc(CO)c([N+](=O)[O-])c3)no2)cc1O [NBA-ZG-2291]
Hep3B cells
  DPM1 expression (whole-genome RNA sequencing): 3.9965 and 3.239
  SCYL3 expression (whole-genome RNA sequencing): 0.949 and 1.202
  TNMD expression (whole-genome RNA sequencing): 0
  TSPAN6 expression (whole-genome RNA sequencing): 7.032 and 6.946
PHD2
  Effect on stability of PHD2 in cells (CETSA): not observed to affect the stability of PHD2
